Tests used:
NUDT2 = target: T1, NUDT2 (Homo sapiens, UniProt P50583); experiment: NUDT2 functional assay; format: biochemical; settings: substrate assay
T1 construct: expressed in transfected cells; host or cells: HEK 293T, transient transfection, soluble lysate; synthesized gene (IDT)
Protocol: NUDT2 functional assay. NUDT2 activity was measured with a published assay using a fluorogenic substrate. For inhibitor experiments, 50 μl of soluble proteome (initial total protein concentration: 1 mg ml^−1) from HEK 293T cells expressing NUDT2 (WT or K89R mutant) or mock transfected cells (empty vector; negative control) were incubated with 1 μl 50× of the compound in DMSO or DMSO for the positive or negative control (lysate transfected with empty vector) for 1 h at room temperature. Lysates were diluted 4000× with dilution buffer and 64 μl were added into a black 384 well plate. 16 μl of fluorogenic substrate (5 μM) were added to start the reaction. The fluorescence intensity with excitation at 530 nm and emission at 563 nm was measured every minute for 30 min.
Calculation of relative activity or percent inhibition. For PNPO, PFKP, NUDT2 and G6PD, the slope of the linear regression of the linear portion of the absorbance or fluorescence over time was used as measure their activity. Apparent activity was calculated relative to the WT. Percent inhibition was calculated relative to the positive and negative control and used to calculate IC50 values by nonlinear regression analysis from a dose-response curve generated using GraphPad Prism 7.

[1] = target: T2, SIN3A-interacting proteins MAX, MNT and MXI1 (Homo sapiens, UniProt Q96ST3); experiment: ABPP-SILAC IP experiment for SIN3A interacting proteins; format: binding; settings: 21 50 μM
T2 construct: expressed in transfected cells; host or cells: SILAC HEK 293T
T2 sequence (Q96ST3 1-400): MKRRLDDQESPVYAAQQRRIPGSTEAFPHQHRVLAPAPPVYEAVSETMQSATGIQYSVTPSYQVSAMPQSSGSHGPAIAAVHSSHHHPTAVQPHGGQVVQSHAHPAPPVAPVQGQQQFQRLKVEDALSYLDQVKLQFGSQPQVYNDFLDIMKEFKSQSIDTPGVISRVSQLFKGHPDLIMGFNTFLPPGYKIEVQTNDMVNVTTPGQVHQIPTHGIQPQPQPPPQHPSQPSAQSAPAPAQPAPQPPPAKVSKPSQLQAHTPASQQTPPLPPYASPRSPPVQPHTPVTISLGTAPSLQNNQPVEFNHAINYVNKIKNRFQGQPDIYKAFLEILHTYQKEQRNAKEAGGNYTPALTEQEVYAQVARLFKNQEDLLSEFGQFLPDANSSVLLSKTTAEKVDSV
Protocol: (§1) ABPP-SILAC IP experiment for SIN3A interacting proteins. All SILAC experiments were performed using the isotopically labeled human HEK 293T cell line generated by 8 passages in either light (100 μg ml^−1 each of L-arginine and L-lysine) or heavy (100 μg ml^−1 each of [^13C6^15N4]L-arginine and [^13C6^15N2]L-lysine) SILAC DMEM media (Thermo Scientific) supplemented with 10% dialyzed fetal calf serum, penicillin, streptomycin and glutamine. 2×10^5 SILAC HEK 293T cells were plated in 6 cm dishes in either heavy or light labeled SILAC media. Cells were transfected the next day with 1 μg of FLAG-GFP, or FLAG-SIN3A wild type, K155R, or K155W constructs as indicated. After 48 hours, cells were rinsed with ice-cold PBS and suspended in cold IP-lysis buffer (0.5% Chaps, 50 mM Hepes pH 7.4, 150 mM NaCl, and EDTA-free protease inhibitors and phosphatase inhibitors (Roche)) by gentle sonication. Samples were rotated for 30 minutes at 4° C. to complete lysis. For compound treatment experiments, 50 μM (final concentration) of 21 was added to samples prior to rotation. Samples were clarified by centrifugation for 1 minute at 16,000 rpm, and protein concentration was measured using the DC Protein Assay kit (Bio-Rad). Samples were normalized to 2 mg/mL by addition of cold IP-lysis buffer. 25 μL of anti-FLAG-M2 beads was added to the clarified supernatant and incubated for 3 h while rotating at 4° C. Beads were washed three times with cold PBS, and then eluted with 40 μL of […] for 10 min at 65° C. […] LC-MS spectra were collected and analyzed as described above with the following modifications. […] A list of all proteins enriched preferentially by SIN3A was generated from a comparison of SIN3A wild type vs GFP immunoprecipitations, including all proteins with at least two distinct quantified peptide sequences and a median ratio greater than or equal to 5 (R>5). […] Furthermore, if there were at least two quantified unique peptides, the median ratio of each protein's unique peptides (not occurring in any other human protein) were reported.

TGIF1-SIN3A interaction = target: T3, TGIF1-SIN3A interaction (Homo sapiens, UniProt Q96ST3); experiment: as above; format: binding; settings: 21 50 μM
T3 construct: expressed in transfected cells; host or cells: SILAC HEK 293T
T3 sequence (Q96ST3 1-400): as above
Protocol: as §1

TGIF2-SIN3A interaction = target: T4, TGIF2-SIN3A interaction (Homo sapiens, UniProt Q96ST3); experiment: as above; format: binding; settings: 21 50 μM
T4 construct: expressed in transfected cells; host or cells: SILAC HEK 293T
T4 sequence (Q96ST3 1-400): as above
Protocol: as §1

T1 sequence (P50583 whole entry): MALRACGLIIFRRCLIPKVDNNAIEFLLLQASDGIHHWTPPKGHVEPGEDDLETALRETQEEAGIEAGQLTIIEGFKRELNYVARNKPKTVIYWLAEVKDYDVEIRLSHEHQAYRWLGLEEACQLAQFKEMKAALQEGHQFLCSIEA

COC(=O)NC(=NC(=O)OCC1c2ccccc2-c2ccccc21)n1cccn1 [fragment 49, N-Methoxycarbonyl-N′-9-fluorenylmethoxycarbonyl-pyrazole-1-carboxamidine]
IC50, inhibition of NUDT2 activity (NUDT2): equivalent IC50 value

O=C(Oc1c(F)c(F)c(F)c(F)c1F)c1cc(C(F)(F)F)cc(C(F)(F)F)c1 [fragment 21, Pentafluorophenyl 3,5-bis(trifluoromethyl)benzoate]
effect on co-immunoprecipitation of MAX, MNT and MXI1 with WT-SIN3A [1]: not affected
effect on TGIF1-SIN3A interaction (TGIF1-SIN3A interaction): strongly blocked the TGIF1-SIN3A interaction
effect on TGIF2-SIN3A interaction (TGIF2-SIN3A interaction): marginal effect

Source: patent US20210255193A1, “LYSINE REACTIVE PROBES AND USES THEREOF” (The Scripps Research Institute, priority 2017, published 2021)
